Results taken from patent EP1170365A1, “Member of the ion channel family of polypeptides; vanilrep4” (SMITHKLINE BEECHAM PLC, priority 2000, dated 2002).

Legend:
Type in all cases: cell-based
hVR4 = molecular target: T1, hVR4 (Homo sapiens, UniProt Q9HBA0); test: FLIPR intracellular calcium assay (Fluo-3) in HEK293 cells transiently expressing hVR4; conditions: for effect on intracellular calcium: HEK293-hVR4 cells, result in words
T1 construct: expressed in transfected cells; host or cells: HEK293 (transient)
Procedure: HEK293 cells transiently expressing hVR1 or hVR4 were seeded into FLIPR96 plates at 25,000cells/well and cultured overnight. The cells were then loaded in medium containing 4microM Fluo-3 for 2hrs, at room temperature, in the dark. The cell plates were then washed 4x with Tyrode containing 1.5mM calcium and 0.2% BSA. Agonist and antagonist plates were prepared in the same buffer. Cells were preincubated with either antagonist or buffer at room temperature for 30 mins. Agonists additions and calcium measurements were made in the FLIPR (Smart et al., (2000) Br J. Pharmacol. 129, 227-230).

wild type HEK293 cells = test: FLIPR intracellular calcium assay (Fluo-3) in wild type HEK293 cells; conditions: result in words
[1] = tested on: cells transfected with empty vector; test: FLIPR intracellular calcium assay (Fluo-3) in HEK293 cells transfected with empty vector; conditions: result in words
hVR1 = molecular target: T2, hVR1 (Homo sapiens, UniProt Q8NER1); test: cell-based; conditions: for activity at VR1: result in words
T2 construct: expressed in transfected cells; host or cells: HEK293 (transient)
T2 sequence (Q8NER1 whole entry): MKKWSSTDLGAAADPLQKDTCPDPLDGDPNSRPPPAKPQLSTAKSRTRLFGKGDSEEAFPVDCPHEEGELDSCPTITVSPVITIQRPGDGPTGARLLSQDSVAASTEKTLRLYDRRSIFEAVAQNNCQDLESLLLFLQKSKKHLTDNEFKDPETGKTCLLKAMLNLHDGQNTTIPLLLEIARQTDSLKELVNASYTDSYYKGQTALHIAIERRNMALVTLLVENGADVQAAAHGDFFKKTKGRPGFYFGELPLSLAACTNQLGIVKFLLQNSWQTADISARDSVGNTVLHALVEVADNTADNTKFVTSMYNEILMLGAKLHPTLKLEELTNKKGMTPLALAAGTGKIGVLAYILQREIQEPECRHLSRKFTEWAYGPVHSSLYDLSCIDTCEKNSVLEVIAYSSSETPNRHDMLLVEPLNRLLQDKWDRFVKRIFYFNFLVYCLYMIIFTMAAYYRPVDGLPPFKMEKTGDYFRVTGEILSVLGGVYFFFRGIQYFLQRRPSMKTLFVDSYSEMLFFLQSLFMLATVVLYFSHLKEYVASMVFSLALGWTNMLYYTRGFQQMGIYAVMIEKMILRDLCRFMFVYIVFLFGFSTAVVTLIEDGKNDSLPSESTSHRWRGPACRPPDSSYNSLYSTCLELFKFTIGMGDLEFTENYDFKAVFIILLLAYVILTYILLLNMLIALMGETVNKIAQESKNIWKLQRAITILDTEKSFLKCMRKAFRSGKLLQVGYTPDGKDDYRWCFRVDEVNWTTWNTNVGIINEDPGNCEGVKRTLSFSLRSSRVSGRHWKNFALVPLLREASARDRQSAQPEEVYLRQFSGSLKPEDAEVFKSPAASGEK

T1 sequence (Q9HBA0 whole entry): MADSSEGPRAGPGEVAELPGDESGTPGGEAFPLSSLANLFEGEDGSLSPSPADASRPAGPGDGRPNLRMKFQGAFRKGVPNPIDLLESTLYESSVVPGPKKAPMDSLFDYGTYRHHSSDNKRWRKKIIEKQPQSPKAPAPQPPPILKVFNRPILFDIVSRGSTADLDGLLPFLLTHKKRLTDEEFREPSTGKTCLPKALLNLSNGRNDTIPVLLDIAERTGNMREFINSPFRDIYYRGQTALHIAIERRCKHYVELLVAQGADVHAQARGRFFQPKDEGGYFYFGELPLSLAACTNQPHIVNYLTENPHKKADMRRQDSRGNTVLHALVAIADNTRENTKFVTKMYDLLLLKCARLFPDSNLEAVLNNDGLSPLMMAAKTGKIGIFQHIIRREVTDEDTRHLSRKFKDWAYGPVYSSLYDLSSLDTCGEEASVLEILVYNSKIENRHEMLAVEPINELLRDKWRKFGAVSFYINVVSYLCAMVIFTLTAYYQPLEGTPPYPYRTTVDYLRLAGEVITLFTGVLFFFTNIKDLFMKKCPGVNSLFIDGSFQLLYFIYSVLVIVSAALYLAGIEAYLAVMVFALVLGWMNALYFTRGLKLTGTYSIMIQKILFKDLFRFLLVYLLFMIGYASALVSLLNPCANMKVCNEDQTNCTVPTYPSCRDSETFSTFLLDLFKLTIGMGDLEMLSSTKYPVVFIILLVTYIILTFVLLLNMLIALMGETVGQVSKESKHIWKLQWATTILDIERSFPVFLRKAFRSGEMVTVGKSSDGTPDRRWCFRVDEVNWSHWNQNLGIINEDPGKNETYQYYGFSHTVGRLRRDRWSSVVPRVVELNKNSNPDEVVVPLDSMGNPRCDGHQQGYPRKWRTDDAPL

| SMILES | effect on intracellular calcium (hVR4) | pEC50 (hVR4; HEK293 cells expressing hVR4, mean±s.e.mean, n=3-5, IA= inactive) | selectivity (hVR4; VR4 versus VR1, conclusion in words) | effect on intracellular calcium (wild type HEK293 cells) | effect on intracellular calcium [1] | activity at VR1 (hVR1; VR1) | EC50 (hVR4) [nM] | EC50 (hVR1) [nM] | Emax (hVR1; VR1, compared to capsaicin and RTX) |
| --- | --- | --- | --- | --- | --- | --- | --- | --- | --- |
| CCCCCCCCCC(=O)O[C@@H]1[C@@H](C)[C@@]2(O)[C@@H](C=C(CO)C[C@@]3(O)C(=O)C(C)=C[C@@H]23)[C@@H]2C(C)(C)[C@]12OC(=O)CCCCCCCCC [4αPDD, 4α-phorbol-12,13-didecanoate] | increased intracellular calcium | 5.73±0.06 | VR4 selective agonist | without effect | without effect | inactive |  |  |  |
| CCCCCCCCCCCCCC(=O)O[C@@H]1[C@@H](C)[C@@]2(O)[C@@H](C=C(CO)C[C@]3(O)C(=O)C(C)=C[C@@H]23)[C@@H]2C(C)(C)[C@]12OC(C)=O [PMA, phorbol 12-myristate 13-acetate] | increased intracellular calcium |  |  | without effect | without effect | partial agonist | 229 | 13.8 | 0.46 |
| C=C(C)C12CC(C)C34OC(Cc5ccccc5)(OC1C3C=C(COC(=O)Cc1ccc(O)c(OC)c1)CC1(O)C(=O)C(C)=CC14)O2 (centres unmarked) [RTX] |  |  |  |  |  |  |  | 1.17 |  |
